Experiment [1] has as its target T1, cystathionine-γ-lyase (CSE) (Homo sapiens, UniProt P32929).
T1 construct: gene CTH; N-terminal GST fusion (pGEX-4T3), expressed in E. coli BL21(DE3) Codon Plus; eluted with reduced GSH, no tag cleavage described
The experiment can be described thus: methylene blue H2S assay, concentration-response. Format: biochemical.

For experiment [2], the target named is T1, cystathionine-γ-lyase (CSE). As to the kind of experiment: methylene blue H2S assay, secondary plot of Lineweaver-Burk slopes. Format: biochemical.
Experiment [3] shares this target. The experiment can be described thus: absorbance spectroscopy. The note with it: covalently attached to Lys212. Format: binding.
Experiment [4] addresses T2, cystathionine-ß-synthase (CBS) (Homo sapiens, UniProt P35520).
T2 construct: N-terminal GST fusion (pGEX-Kg), expressed in E. coli BL21(DE3) Codon Plus; eluted with reduced GSH, no tag cleavage described; homotetramer
T2 sequence (P35520 1-551): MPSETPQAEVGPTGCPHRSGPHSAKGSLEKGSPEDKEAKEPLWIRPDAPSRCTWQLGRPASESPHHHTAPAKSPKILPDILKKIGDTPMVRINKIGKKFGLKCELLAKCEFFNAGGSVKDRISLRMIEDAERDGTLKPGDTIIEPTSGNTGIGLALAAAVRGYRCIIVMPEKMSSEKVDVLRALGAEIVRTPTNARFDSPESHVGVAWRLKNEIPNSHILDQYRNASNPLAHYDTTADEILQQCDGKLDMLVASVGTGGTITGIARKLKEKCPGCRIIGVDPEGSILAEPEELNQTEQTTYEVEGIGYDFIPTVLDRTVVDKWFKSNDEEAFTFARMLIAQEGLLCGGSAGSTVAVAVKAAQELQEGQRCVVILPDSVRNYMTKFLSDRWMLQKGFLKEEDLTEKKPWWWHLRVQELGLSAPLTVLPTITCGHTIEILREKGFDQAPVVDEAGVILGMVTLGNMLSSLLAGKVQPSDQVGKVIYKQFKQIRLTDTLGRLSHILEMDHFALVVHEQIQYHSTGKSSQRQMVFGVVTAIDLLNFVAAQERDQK
As to the kind of experiment: absorbance spectroscopy. The format is binding. The note with it: bound at Lys119.

The structures appear in SMILES notation.

T1 sequence (P32929 whole entry, the tested form may be a part): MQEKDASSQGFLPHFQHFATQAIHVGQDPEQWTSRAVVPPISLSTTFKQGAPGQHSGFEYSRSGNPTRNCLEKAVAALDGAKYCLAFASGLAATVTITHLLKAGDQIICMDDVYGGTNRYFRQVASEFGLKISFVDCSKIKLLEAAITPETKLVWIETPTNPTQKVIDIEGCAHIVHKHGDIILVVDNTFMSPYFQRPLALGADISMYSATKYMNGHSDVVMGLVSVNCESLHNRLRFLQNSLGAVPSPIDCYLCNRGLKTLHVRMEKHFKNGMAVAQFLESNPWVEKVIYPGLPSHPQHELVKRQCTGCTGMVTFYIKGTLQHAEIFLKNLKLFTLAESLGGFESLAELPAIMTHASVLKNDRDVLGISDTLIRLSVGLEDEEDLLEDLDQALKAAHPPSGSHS

For orientation: IC50 means the concentration that inhibits the measured activity by half. Higher therefore signals a need for much substance. One may read the Ki as the dissociation constant of the complex between target and ligand, obtained from inhibition or displacement. Lower therefore signals a stronger hold on the target. `C#CCNC(=O)[C@@H]1CSC(=O)N1` [2a, compound 2a]: in experiment [1], inhibition was half-maximal at 6.3 ± 1 µM (IC50). Affinity in experiment [2] was put at a Ki of 13 µM.

For `Cc1ncc(COP(=O)(O)O)c(C=O)c1O` [PLP], the absorbance spectroscopy entry in experiment [3] was “enzymes are correctly folded and bind the respective prosthetic groups”; in experiment [4], “enzymes are correctly folded and bind the respective prosthetic groups”.

`C#CCC(N)C(=O)O` (centres unmarked) [PAG]: the IC50 in experiment [1] was 42.2 ± 1.1 µM.

Source of the values: article PMC5052628, “Fragment-based de novo design of a cystathionine γ-lyase selective inhibitor blocking hydrogen sulfide production” (Scientific Reports, 2016).
